Source: patent US20080008704A1, “Methods of treating colorectal cancer with anti-epidermal growth factor antibodies” (priority 2001, published 2008)
Entries after “also recorded” stand apart in the source; their conditions may differ.

Assays:
Format in all cases: in vivo, human
[1] = system: metastatic colon cancer (EGF receptor positive); test: Example 1: patient with metastatic colon cancer treated with C225 and CPT-11; conditions: IRINOTECAN 125 mg/m^2 weekly given with C225
Experimental: (§1) A patient presented with abdominal pain and constipation. […] Pathology confirmed metastatic colon cancer which is incurable. […] Since there were no other standard treatment options their tumor was assayed for EGF receptor which was positive.
For the first two weeks, IRINOTECAN® was administered at a dose of 125 mg/m^2.

[2] = system: colon cancer relapse (unresectable peritoneal disease, pulmonary metastasis); test: Example 2: same patient after relapse, treated again with C225 and dose reduced CPT-11, then C225 alone; conditions: dose reduced CPT-11 with C225
Text: The subsequent history of the patient described in Example 1 is as follows. […] This was resected and subsequently they received both intrahepatic and systemic chemotherapy (FUDR and CPT-11) for 6 months.

[3] = system: metastatic colon cancer, liver metastasis; test: Prior therapies of the Example 1 patient before C225; conditions: same patient
Experimental: as §1

CCc1c2c(nc3ccc(OC(=O)N4CCC(N5CCCCC5)CC4)cc13)-c1cc3c(c(=O)n1C2)COC(=O)[C@]3(O)CC [IRINOTECAN]
toxicity causing IRINOTECAN dose to be held or reduced [1]: diarrhea; also recorded: neutropenia
tolerability of CPT-11 [2]: discontinued secondary to toxicity
disease course on prior therapy [3]: continued to progress in the liver

O=C1[O][Pt]2([NH][C@@H]3CCCC[C@H]3[NH]2)[O]C1=O [OXALOPLATIN]
disease course on prior therapy [3]: further disease progression in the liver

O=c1[nH]cc(F)c(=O)[nH]1 [5-FU, 5-fluorouracil]
disease course on prior therapy [3]: progressed with increasing liver metastasis
